For orientation: CC50 means the concentration that lowers cell viability or growth by half. The term EC50 denotes the concentration giving half of the maximal effect. By IC50 is commonly meant the concentration that gives 50% inhibition. The AC50 is the midpoint of the concentration-response curve, whichever way the signal moves.

Activity calls are given as the source filed them.

A short description of assay [1]: viability loss in Vero cells – cytotoxicity control for Vif-APOBEC3G degradation inhibitor project, dose response (AID 1117358). Type of assay: functional. The settings on record: Vero.
A short description of assay [2]: Trypanosoma cruzi growth suppression in host cells – NIH3T3 host cells, beta-gal luminescence, confirmation (AID 2044).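 Also: intracellular parasites grown in NIH/3T3 mouse fibroblasts as host cells; luminescent beta-galactosidase reporter signal from transgenic T. cruzi replicating inside host cells; inhibitors lower the luminescence signal.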 The format is functional, cell-based.
Assay [3] in a line: NIH3T3 cell viability loss – ATP luminescence, mouse fibroblasts, counter-screen, dose response (AID 2010).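 Also: cells exposed to compound for about 90 hours before reading.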 Type of assay: functional, cell-based. A general note: The purpose of a counterscreen is to sort out artefacts and off-target activity.
Assay [4] is described as follows: Luminescence Cell-Based Dose Response to Identify Activators of 5'UTR Stem-Loop Driven Prion Protein mRNA Translation in H4-C Neuroglioblastoma Cells. [Related pubchem assays: 1829 (Project Summary), 1814 (Primary HTS)]. The format is functional.
The nature of assay [5]: Luminescence Cell-Based Dose Response HTS to Identify Activators of Luciferase Translation or Activity in H4 […] Cells. [Related pubchem assays: 1829 (Project Summary), 1814 (Primary HTS)]. Type of assay: functional.
The subject of a further assay is H4. The experiment in a line: Luminescence Cell-Based Dose Response HTS to Identify Activators of 5'UTR Stem-Loop Driven Prion Protein mRNA Translation in H4 Neuroglioblastoma Cells. [Related pubchem assays: 1829 (Project Summary), 1814 (Primary HTS)]. The format is functional. The settings on record: Homo sapiens.
A short description of assay [6]: Luminescence Cell-Based Dose Response to Identify Activators of Luciferase Translation or Activity in H4-C Neuroglioblastoma Cells. [Related pubchem assays: 1829 (Project Summary), 1814 (Primary HTS)]. Type of assay: functional.
Assay [7] is described as follows: Luminescence Cell-Based Dose Confirmation to Identify Activators of 5'UTR Stem-Loop Driven Alpha-Synuclein mRNA Translation in H4 Neuroglioblastoma Cells. [Related pubchem assays: 1829 (Project Summary), 1814 (Primary HTS)]. Type of assay: functional.
The target in the next assay is T1, Leucine aminopeptidase (Plasmodium falciparum 3D7, UniProt Q8IL11).
T1 sequence (Q8IL11 whole entry): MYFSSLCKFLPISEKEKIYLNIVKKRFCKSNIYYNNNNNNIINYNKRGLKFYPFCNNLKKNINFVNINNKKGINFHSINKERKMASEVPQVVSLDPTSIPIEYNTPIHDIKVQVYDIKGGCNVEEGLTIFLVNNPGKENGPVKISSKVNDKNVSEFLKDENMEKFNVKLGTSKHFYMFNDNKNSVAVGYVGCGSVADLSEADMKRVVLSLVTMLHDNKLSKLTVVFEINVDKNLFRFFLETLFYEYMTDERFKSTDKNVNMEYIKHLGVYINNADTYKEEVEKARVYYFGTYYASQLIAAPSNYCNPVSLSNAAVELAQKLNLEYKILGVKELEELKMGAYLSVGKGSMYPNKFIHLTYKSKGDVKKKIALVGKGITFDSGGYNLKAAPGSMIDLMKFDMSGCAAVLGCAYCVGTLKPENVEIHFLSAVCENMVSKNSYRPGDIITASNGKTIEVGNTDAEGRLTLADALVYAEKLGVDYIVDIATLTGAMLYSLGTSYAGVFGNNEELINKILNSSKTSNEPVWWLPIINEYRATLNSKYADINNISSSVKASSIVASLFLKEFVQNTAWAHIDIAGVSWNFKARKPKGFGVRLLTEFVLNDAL
The experiment in a line: P. falciparum M17LAP inhibitors, primary screen, biochemical, fluorogenic H-Leu-NHMec substrate, 1536-well (AID 1619). The format is functional.

A further assay deals with Aspartyl aminopeptidase (Plasmodium falciparum 3D7, UniProt Q8I2J3). Put plainly: Counterscreen for inhibitors of M1 and M17 aminopeptidases: QFRET-based biochemical high throughput dose response assay for inhibitors of the Plasmodium falciparum M18 Aspartyl Aminopeptidase (PFM18AAP). [Related PubChem assays: 1619 (Screening assay (M17LAP inhibitors).), 1445 (Screening assay (M1AAP inhibitors).)].

Assay [8] is described as follows: A cytotoxicity screen of small molecule inhibitors of the PhoP region in Salmonella typhi identified in the primary screen. [Related pubchem assays: 1850, 1864, 1985 ]. Type of assay: functional.
Another assay has as its target Procathepsin L (Homo sapiens, UniProt P07711). Put plainly: CTSL1 protease inhibition – biochemical, QFRET, 1536-well, counter-screen for M1/M17 aminopeptidase inhibitor project, dose response (AID 2214).
Assay [9] can be described thus: viability loss in THP-1 monocytes – THP-1 cells, cytotoxicity control for Vif-APOBEC3G degradation inhibitor project, dose response (AID 1117359). Type of assay: functional. The note with it: THP-1.
Assay [10] deals with T2, Ubiquitin-conjugating enzyme E2 N (Homo sapiens, UniProt P61088).
T2 sequence (P61088 whole entry): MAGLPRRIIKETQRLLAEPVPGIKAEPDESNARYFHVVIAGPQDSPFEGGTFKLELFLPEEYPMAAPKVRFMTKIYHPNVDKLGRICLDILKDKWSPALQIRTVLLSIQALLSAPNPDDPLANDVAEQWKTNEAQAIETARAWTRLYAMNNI
Type of assay: functional.

The test system of the next assay is INS1. Put plainly: INS-1E survival protection against cytokine death – cell-based, luminescence, retest, dose response (AID 449756).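 Also: cell death triggered by IL-1 beta plus TNF-alpha plus IFN-gamma mixture; protective hits raise ATP signal compared with cytokine alone wells.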 The format is functional. The note with it: Rattus norvegicus.

Sequence of Procathepsin L (P07711 whole entry): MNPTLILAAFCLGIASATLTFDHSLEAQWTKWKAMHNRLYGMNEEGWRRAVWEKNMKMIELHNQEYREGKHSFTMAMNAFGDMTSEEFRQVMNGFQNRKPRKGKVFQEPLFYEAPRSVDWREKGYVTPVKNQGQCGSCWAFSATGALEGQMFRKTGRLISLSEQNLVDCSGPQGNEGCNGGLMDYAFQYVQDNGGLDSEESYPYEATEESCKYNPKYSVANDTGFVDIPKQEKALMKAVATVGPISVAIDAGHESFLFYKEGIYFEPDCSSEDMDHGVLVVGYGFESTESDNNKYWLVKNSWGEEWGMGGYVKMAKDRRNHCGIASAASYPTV
Sequence of Aspartyl aminopeptidase (Q8I2J3 whole entry): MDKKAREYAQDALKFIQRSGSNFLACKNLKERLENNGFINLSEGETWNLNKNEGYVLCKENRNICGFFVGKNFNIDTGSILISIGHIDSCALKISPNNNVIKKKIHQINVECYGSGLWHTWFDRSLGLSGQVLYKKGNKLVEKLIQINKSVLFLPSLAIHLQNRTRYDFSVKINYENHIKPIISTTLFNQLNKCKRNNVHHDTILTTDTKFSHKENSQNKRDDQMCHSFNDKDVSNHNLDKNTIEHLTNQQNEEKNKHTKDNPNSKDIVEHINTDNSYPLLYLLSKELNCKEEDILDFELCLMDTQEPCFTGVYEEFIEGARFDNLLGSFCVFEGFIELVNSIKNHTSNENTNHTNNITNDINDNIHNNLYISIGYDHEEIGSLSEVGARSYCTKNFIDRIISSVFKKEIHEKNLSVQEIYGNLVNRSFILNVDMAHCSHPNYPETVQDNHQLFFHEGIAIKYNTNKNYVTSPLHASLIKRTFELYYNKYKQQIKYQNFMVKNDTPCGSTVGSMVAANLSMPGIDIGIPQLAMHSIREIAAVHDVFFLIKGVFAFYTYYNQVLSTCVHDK

Consider `Cc1ccc(Nc2nc(C(=O)NCc3ccco3)cs2)cc1`, for which the CC50 in assay [1] was > 40 µM (active).

As to `COc1ccc(N=C(S)NCCc2ccccc2OC)c(OC)c1`, the CC50 in assay [1] was > 40 µM (active).

`COC(=O)c1ccc(CN2CCCC(CCC(=O)NCc3ccc(C)o3)C2)cc1` (stereo unspecified): the EC50 in assay [2] was < 0.1 µM (active); in [3] it was > 60 µM (not active); in the assay “cells”, 0.113 µM (active).

Consider `COc1ccccc1-c1nc(-c2ccc(Br)cc2)no1`, for which the EC50 in [4] is 0.427 µM (active); in assay [5] it was 0.217 µM (active); in the assay with H4, < 0.1 µM (active); in assay [6], 0.378 µM (active); in [7], 0.34 µM (active).

Consider `CCCCc1c(O)nc(SCC(=O)Nc2ccc3c(c2)CCC3)nc1O`, for which the IC50 was 7.61 µM (active) on Leucine aminopeptidase, > 73.5 µM (not active) at Aspartyl aminopeptidase and > 59.6 µM (not active) on Procathepsin L. Also, the EC50 in assay [8] is > 50 µM (active).

As for `CCn1c(=O)oc2cc(NC(=O)CCl)ccc21`, the CC50 in assay [9] was > 40 µM (active).

For `O=C1/C(=C\c2ccco2)CCC/C1=C\c1ccco1`, the CC50 in [9] is > 40 µM (active).

`CC(C)(C)c1cc(NCCCn2ccnc2)n2ncc(-c3ccccc3)c2n1`: the concentration giving a half-maximal response (EC50) is 1.27 µM (active) in assay [4]; < 0.1 µM (active) in [5]; > 120 µM (not active) in the assay with H4; 0.377 µM (active) in assay [6]; 0.735 µM (active) in assay [7]. Besides, in assay [10], the IC50 was > 20 µM (inactive). Besides, the AC50 in the assay on INS1 is 11 µM (active).

Take `Cc1ccccc1Oc1ccc(NC(=O)C2CC=CCC2C(=O)O)cc1` (stereo unspecified): the IC50 was 1.33 µM (active) at Leucine aminopeptidase, > 73.5 µM (not active) against Aspartyl aminopeptidase and > 59.6 µM (not active) at Procathepsin L.

These data come from ChEMBL document CHEMBL1201862, “PubChem BioAssay data set” (2004).
